# pIC50: −log10 of the molar value.
# Legend:
# [1] = target: T1, Mitogen-activated protein kinase 11 (Homo sapiens, UniProt Q15759); assay: Inhibition of recombinant human His-tagged P38beta MAPK (1 to 364 residues) expressed in Escherichia coli incubated for 60 mins by [gamma-33P]ATP based scintillation counting method
# [2] = target: T2, Mast/stem cell growth factor receptor Kit (Homo sapiens, UniProt P10721); assay: Inhibition of wild-type human partial length KIT (I571 to D952 residues) expressed in bacterial expression system at 1 uM by Kinomescan method relative to control
# T2 sequence (P10721 whole entry, the tested form may be a part): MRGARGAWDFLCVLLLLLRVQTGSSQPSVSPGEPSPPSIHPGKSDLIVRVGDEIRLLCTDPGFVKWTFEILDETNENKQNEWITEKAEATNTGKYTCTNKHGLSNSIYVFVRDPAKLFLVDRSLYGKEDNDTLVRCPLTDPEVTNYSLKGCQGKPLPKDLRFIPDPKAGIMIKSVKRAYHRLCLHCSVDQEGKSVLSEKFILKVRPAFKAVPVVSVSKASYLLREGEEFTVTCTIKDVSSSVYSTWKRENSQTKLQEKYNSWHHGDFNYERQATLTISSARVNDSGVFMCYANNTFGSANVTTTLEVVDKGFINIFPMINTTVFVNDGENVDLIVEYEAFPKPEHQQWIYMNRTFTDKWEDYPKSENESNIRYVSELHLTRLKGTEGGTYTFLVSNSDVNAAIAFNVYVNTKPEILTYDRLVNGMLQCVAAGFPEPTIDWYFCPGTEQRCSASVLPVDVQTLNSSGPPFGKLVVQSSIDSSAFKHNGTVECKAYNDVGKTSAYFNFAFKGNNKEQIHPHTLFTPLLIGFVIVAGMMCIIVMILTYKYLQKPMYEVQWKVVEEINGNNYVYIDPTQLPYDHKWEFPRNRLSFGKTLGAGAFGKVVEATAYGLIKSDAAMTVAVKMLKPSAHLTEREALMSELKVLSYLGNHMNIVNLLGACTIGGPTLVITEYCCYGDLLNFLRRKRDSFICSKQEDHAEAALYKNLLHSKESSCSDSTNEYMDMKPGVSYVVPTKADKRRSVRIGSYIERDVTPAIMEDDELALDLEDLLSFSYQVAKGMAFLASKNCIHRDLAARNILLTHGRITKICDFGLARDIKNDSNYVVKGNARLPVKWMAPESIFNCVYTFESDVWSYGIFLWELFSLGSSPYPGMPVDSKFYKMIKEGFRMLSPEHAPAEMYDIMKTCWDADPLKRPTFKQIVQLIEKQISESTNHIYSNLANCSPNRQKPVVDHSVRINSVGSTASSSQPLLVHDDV
# [3] = target: T3, Ribosomal protein S6 kinase alpha-6 (Homo sapiens, UniProt Q9UK32); assay: Inhibition of wild-type human partial length N-terminal RSK4 kinase domain 1 (M1 to E397 residues) expressed in mammalian expression system at 1 uM by Kinomescan method relative to control
# T3 sequence (Q9UK32 whole entry, the tested form may be a part): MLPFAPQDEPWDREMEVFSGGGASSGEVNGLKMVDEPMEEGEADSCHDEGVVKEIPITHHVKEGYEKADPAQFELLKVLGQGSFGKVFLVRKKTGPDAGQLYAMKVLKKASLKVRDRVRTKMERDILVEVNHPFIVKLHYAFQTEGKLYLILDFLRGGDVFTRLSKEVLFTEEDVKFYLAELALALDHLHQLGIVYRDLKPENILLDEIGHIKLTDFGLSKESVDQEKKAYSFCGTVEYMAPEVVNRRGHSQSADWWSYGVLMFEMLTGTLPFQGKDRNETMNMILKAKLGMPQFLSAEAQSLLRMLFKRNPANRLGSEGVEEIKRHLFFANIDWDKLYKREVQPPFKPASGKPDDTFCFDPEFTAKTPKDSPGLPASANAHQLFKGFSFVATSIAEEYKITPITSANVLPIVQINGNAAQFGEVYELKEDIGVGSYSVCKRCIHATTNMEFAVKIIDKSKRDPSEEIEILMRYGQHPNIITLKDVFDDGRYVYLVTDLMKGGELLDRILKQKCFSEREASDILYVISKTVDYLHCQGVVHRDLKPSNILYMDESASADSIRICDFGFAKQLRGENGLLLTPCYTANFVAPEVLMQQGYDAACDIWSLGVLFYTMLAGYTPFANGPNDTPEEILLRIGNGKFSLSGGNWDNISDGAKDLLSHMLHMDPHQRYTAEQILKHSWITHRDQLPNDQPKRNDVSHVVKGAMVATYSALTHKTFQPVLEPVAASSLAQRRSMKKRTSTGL
# [4] = target: T4, Discoidin domain-containing receptor 2 (Homo sapiens) (UniProt Q16832); assay: Inhibition of wild-type human partial length DDR2 (V555 to E855 residues) expressed in mammalian expression system at 1 uM by Kinomescan method relative to control
# T4 sequence (whole entry): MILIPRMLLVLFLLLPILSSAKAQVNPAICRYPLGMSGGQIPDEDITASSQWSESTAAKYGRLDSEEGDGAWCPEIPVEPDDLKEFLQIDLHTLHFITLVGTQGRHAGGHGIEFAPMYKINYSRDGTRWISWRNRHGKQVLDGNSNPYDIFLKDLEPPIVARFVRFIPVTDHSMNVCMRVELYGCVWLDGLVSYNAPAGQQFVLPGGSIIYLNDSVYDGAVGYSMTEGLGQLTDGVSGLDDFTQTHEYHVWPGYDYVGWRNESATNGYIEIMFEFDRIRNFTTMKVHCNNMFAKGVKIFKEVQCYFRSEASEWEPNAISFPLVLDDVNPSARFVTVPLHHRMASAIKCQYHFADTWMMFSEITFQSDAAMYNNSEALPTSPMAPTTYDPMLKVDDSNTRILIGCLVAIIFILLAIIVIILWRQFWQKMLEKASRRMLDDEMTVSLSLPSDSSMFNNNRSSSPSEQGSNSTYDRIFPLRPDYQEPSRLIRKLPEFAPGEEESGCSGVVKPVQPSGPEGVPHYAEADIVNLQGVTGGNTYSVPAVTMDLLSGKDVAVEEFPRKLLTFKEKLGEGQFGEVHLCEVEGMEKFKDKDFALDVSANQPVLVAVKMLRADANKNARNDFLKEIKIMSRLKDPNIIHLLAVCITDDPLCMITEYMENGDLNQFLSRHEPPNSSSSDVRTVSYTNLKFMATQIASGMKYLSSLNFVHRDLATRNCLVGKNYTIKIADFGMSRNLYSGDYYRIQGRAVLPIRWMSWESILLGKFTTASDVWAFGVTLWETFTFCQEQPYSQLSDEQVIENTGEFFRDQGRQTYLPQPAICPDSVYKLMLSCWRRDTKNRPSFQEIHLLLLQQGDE
# [5] = target: T5, Myosin light chain kinase family member 4 (Homo sapiens) (UniProt Q86YV6); assay: Inhibition of wild-type human partial length MYLK4 (V79 to S380 residues) expressed in bacterial expression system at 1 uM by Kinomescan method relative to control
# T5 sequence (whole entry): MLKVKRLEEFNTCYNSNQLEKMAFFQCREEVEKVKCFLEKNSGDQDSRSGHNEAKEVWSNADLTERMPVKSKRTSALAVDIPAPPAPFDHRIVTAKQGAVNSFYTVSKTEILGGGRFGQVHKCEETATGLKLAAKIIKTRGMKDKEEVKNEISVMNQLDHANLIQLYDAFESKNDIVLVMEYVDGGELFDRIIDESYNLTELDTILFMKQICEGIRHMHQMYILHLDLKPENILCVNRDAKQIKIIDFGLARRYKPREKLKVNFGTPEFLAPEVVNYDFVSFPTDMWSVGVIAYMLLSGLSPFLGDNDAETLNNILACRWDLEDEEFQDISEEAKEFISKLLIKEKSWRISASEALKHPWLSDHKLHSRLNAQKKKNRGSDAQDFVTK
# [6] = target: T1, Mitogen-activated protein kinase 11; assay: Inhibition of p38-beta (unknown origin) expressed in human HEK293 cells incubated for 2 hrs followed by NanoBRET NanoGlo Substrate addition by NanoBRET assay; type: cell-based
# [7] = target: Epithelial discoidin domain-containing receptor 1 (Homo sapiens, UniProt Q08345); assay: Inhibition of DDR1 (unknown origin) expressed in human HEK293 cells incubated for 2 hrs followed by NanoBRET NanoGlo Substrate addition by NanoBRET assay; type: cell-based
# Sequence of Epithelial discoidin domain-containing receptor 1 (Q08345 whole entry, the tested form may be a part): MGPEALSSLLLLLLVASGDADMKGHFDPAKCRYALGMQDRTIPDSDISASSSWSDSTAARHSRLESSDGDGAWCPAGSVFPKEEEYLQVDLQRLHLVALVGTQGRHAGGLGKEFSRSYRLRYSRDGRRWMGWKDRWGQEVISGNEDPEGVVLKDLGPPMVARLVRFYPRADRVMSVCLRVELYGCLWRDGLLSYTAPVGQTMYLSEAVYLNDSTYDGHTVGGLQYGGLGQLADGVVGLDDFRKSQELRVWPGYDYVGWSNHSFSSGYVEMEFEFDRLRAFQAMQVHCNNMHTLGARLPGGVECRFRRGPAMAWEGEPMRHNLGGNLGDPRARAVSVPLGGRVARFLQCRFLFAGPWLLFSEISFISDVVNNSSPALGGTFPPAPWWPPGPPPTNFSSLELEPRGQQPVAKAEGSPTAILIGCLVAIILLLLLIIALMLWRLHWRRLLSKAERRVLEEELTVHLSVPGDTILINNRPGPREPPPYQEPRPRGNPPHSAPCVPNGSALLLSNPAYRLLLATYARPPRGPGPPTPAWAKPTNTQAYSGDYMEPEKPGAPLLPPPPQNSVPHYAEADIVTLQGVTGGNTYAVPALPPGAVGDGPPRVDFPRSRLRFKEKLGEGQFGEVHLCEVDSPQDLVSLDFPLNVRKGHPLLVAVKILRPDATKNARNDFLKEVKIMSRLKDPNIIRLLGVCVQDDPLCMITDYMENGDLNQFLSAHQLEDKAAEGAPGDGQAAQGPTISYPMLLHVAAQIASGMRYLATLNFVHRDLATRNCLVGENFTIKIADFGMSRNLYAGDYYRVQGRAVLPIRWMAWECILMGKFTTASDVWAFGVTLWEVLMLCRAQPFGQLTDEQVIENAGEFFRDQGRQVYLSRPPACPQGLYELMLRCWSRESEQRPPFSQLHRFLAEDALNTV
# [8] = target: T2, Mast/stem cell growth factor receptor Kit; assay: Inhibition of KIT (unknown origin) expressed in human HEK293 cells incubated for 2 hrs followed by NanoBRET NanoGlo Substrate addition by NanoBRET assay; type: cell-based
# [9] = target: T3, Ribosomal protein S6 kinase alpha-6; assay: Inhibition of RSK4 kinase domain 1 (unknown origin) expressed in human HEK293 cells incubated for 2 hrs followed by NanoBRET NanoGlo Substrate addition by NanoBRET assay; type: cell-based
# [10] = target: T6, Discoidin domain-containing receptor 2 (Homo sapiens, UniProt Q16832); assay: Inhibition of DDR2 (unknown origin) expressed in human HEK293 cells incubated for 2 hrs followed by NanoBRET NanoGlo Substrate addition by NanoBRET assay; type: cell-based
# T6 sequence (Q16832 whole entry): T4 sequence (whole entry)
# [11] = target: T7, Myosin light chain kinase family member 4 (Homo sapiens, UniProt Q86YV6); assay: Inhibition of MYLK4 (unknown origin) expressed in human HEK293 cells incubated for 2 hrs followed by NanoBRET NanoGlo Substrate addition by NanoBRET assay; type: cell-based
# T7 sequence (Q86YV6 whole entry): T5 sequence (whole entry)
# [12] = Metabolic stability in human liver microsomes assessed as compound degradation incubated for 50 mins by LC/MS analysis; type: ADME, Microsome
# [13] = Metabolic stability in human liver microsomes assessed as compound degradation incubated for 240 mins by LC/MS analysis; type: ADME, Microsome; conditions: read-out: Drug degradation
# Blood [14] = assay: Inhibition of LPS-induced TNFalpha production in human whole blood at 10 uM preincubated for 15 mins followed by LPS stimulation and measured after 2.5 hrs by ELISA relative to control; type: functional
# [15] = target: T1, Mitogen-activated protein kinase 11; conditions: 1 uM
# Description: Inhibition of wild-type human full length p38-beta (M1 to Q364 residues) expressed in bacterial expression system at 1 uM by Kinomescan method relative to control
# [16] = target: Mitogen-activated protein kinase kinase kinase 20 (Homo sapiens) (UniProt Q9NYL2); assay: Inhibition of wild-type human partial length ZAK (M1 to L331 residues) expressed in bacterial expression system at 1 uM by Kinomescan method relative to control
# Sequence of Mitogen-activated protein kinase kinase kinase 20 (Homo sapiens) (Q9NYL2 whole entry, looked up, the tested form may be a part): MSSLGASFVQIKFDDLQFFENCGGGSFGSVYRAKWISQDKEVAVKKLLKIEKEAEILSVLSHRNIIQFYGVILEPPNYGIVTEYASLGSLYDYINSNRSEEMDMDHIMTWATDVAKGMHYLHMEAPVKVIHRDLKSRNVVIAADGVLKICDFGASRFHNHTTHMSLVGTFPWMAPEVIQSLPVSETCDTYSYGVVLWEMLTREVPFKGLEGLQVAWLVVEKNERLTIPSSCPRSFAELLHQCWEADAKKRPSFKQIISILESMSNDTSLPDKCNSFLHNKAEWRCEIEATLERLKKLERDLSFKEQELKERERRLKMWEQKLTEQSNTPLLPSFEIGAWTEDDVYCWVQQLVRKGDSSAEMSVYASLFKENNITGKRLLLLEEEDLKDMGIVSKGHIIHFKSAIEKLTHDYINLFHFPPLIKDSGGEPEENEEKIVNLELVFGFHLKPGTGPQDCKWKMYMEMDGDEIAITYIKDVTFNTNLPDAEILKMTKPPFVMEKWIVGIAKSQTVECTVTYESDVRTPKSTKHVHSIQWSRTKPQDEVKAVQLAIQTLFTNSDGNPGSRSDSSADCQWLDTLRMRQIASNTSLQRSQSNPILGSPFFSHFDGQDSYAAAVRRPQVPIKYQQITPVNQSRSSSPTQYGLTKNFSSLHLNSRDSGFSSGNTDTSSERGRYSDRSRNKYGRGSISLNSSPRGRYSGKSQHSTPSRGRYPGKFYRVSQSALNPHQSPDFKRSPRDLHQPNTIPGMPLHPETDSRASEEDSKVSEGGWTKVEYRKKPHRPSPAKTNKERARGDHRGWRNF
# [17] = target: Mitogen-activated protein kinase 14 (Homo sapiens, UniProt Q16539); assay: Inhibition of full-length human C-terminal NanoLuc-tagged P38 alpha MAPK expressed in human HEK293T cells incubated for 2 hrs followed by NanoBRET NanoGlo Substrate addition by NanoBRET assay; type: cell-based
# Sequence of Mitogen-activated protein kinase 14 (Q16539 whole entry): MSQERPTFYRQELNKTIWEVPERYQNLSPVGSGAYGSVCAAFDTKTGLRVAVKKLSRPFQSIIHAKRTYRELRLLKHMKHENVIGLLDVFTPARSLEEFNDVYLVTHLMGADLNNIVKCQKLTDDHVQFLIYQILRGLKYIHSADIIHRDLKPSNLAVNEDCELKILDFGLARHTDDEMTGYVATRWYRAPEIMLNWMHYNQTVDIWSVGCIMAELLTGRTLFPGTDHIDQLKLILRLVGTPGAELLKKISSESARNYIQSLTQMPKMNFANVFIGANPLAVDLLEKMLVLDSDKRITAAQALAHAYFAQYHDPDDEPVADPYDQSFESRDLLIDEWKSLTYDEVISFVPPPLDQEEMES
# Blood [18] = assay: Inhibition of LPS-induced TNFalpha production in human whole blood preincubated for 15 mins followed by LPS stimulation and measured after 2.5 hrs by ELISA; type: functional, tissue-based
# T1 sequence (Q15759 whole entry, the tested form may be a part): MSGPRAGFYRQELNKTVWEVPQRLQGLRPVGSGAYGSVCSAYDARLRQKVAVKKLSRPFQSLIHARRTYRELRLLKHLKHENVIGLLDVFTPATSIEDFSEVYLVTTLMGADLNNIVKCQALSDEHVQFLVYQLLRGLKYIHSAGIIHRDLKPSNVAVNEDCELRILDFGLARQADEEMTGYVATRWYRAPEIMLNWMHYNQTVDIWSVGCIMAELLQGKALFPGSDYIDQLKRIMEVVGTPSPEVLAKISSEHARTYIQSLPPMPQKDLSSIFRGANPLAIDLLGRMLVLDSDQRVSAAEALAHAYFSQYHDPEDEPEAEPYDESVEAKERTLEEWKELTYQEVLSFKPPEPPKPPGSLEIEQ
pIC50 [1],inhibition [2],inhibition [3],inhibition [4],inhibition [5],pIC50 [6],pIC50 [7],pIC50 [8],pIC50 [9],pIC50 [10],pIC50 [11],Stability [12],metabolised at 4 h [13],inhibition [15],inhibition [16],pIC50 [17],pIC50 (Blood [18]),Structure (SMILES),inhibition at 10 µM (Blood [14])
7.49,7.7%,29%,31%,31%,8.00,5.52,5.07,4.85,5.25,5.00,Stable,38.2%,0%,8.8%,,,Nc1c(C(=O)NCc2ccc(C(=O)NCCCC3CCCCC3)cc2)cnn1-c1ccccc1 [SR-318],97.7%
,,,,,4.96,4.89,< 4.70,< 4.70,6.66,< 4.70,,,,,4.89,< 5.00,O=C(NCCCC1CCCCC1)c1ccc(CNC(=O)c2cnn(-c3ccccc3)c2C(F)(F)F)cc1 [SR-321],6.35%
